The values below come from patent US20110262442A1, “COMPOSITIONS FOR TREATING CNS DISORDERS” (Adenios, Inc., priority 2009, published 2011).

The subject of test [1] is brain endothelial cells. The experiment in a line: Actin stress fiber induction in brain endothelial cells. It counts as cell-based. On the procedure:
To test this brain endothelial cells were treated with either CCPA (to agonize A1 adenosine receptors) or […] (to agonize the A2A adenosine receptor).

Test [2] deals with Z310 cells. The experiment in a line: Jurkat cell migration across Z310-seeded Transwell (choroid plexus). Conditions: Z310 cells on Transwell, migrated cells counted after 24 hours, n=1. In kind it is cell-based, murine. On the procedure:
The choroid plexus (“CP”) controls lymphocyte migration into the CNS. The CP expresses the A1 and A2A adenosine receptors. EAE is prevented in mice when A2A adenosine receptor activity is blocked. EAE is enhanced when the A1 adenosine receptor is missing. It was hypothesized that A2A adenosine receptor activation promotes lymphocyte migration across the CP. Z310 cells are a murine choroid plexus cell line. To test the hypothesis, Transwell membranes were seeded with Z310 cells and allowed to grow to confluencey. 2×10^6 Jurkat cells were added to the upper chamber with or with out NECA (n=1, general AR agonist), CCPA (n=1, AAR agonist), CGS 21860 (n=1, A2AAR agonist), or DMSO vehicle (n=1). After 24 hours, migrated cells in the lower chamber were counted. Values are relative to the number of cells that migrate through non-Z310 seeded transwells and the results are shown in FIG. 12.

Test [3] concerns hCMEC/D3 cells. Description: Jurkat cell migration across hCMEC/D3-seeded Transwell (in vitro BBB). Conditions: hCMEC/D3 on Transwell, migrated cells counted after 24 hours. It counts as cell-based, human. An excerpt: The blood brain barrier (“BBB”) is comprised of endothelial cells. During late stages of EAE, lymphocytes are known to cross the BBB. In order to determine if adenosine receptor stimulation of brain endothelial cells could promote lymphocyte migration through the BBB, an in vitro BBB was established. The human brain endothelial cell line hCMEC/D3 (Weksler et al., “Blood-brain Barrier-specific Properties of a Human Adult Brain Endothelial Cell Line,” […] (2005); Poller et al., “The Human Brain Endothelial Cell Line hCMEC/D3 as a Human Blood-brain Barrier Model for Drug Transport Studies,” J. Neurochem. 107(5):1358-1368 (2008), which are hereby incorporated by reference in their entirety) was obtained, which has been previously described as having BBB properties.
hCMEC/D3 cells were seeded onto Transwell and allowed to grow to confluencey. 2×10^6 Jurkat cells were added to the upper chamber with or without NECA (general adenosine receptor [AR] agonist), CCPA (A1 AR agonist), CGS 21860 (A2A AR agonist), or DMSO vehicle. After 24 hours, migrated cells in the lower chamber were counted. Values are relative to the number of cells that migrate through non-HCMECD3 seeded transwells.

Test [4] concerns blood brain barrier. The experiment in a line: Fluorimetric analysis of labeled dextrans in brain after i.v. drug administration. It counts as in vivo, mice. Conditions: wild type mice, 10,000 Da FITC-dextran; for dextran entry into the CNS compared to NECA administration: 3 h after i.v. administration; for dextran entry into the CNS compared to vehicle treatment: 3 h after i.v. co-administration. The method, then: C57BL/6 mice from Jackson Laboratories were used as wild types. All mice used were aged 7-9 weeks and weighed between 20-25 g. All rats were aged 8 weeks and weighed 200-220 g. Mice and rats were bred and housed under specific pathogen-free conditions.
The adenosine receptor agonists NECA, CCPA and CGS 21860 were purchased from Tocris. Each was dissolved in DMSO then diluted in PBS to the desired concentration; in most cases final DMSO concentrations were <0.5% (vol/vol). For vehicle controls, DMSO was diluted in PBS to the same concentration. Dehydrated dextrans labeled with either FITC or Texas Red were purchased from Invitrogen and re-suspended in PBS to 10 mg ml^−1. All experiments involving dextran injection used 0.5 mg dextran in PBS. In experiments where drug and dextran were injected concomitantly, 0.5 mg of dextran was mixed with the drug to the desired concentration in a final volume of 200 μl. All injections were retro-orbital i.v. with a 27-gauge needle. In the SCH 58261 experiment, groups were administered vehicle or SCH 58261 for 4 d. Vehicle/drug and dextrans were injected on day 5 and tissues were collected 3 h after vehicle/drug administration. In Lexiscan experiments, Lexiscan was administered i.v. with 3 injections, 5 min apart and tissues were collected at 15 min unless otherwise indicated.
In dose-response experiments and experiments with the A1 AR and A2A AR knock-out mice, drugs and dextrans were injected concomitantly. After 3 h, the mice were anesthetized with ketamine/xylazine and subjected to a nose cone containing isoflurane. They were perfused with 25-50 ml ice-cold PBS through the left ventricle of the heart then decapitated. Their brains were removed, weighed and frozen for later analysis.
Ice-cold 50 mM Tris-Cl (pH 7.6) was added to frozen brains (100 μl per 100 mg brain) and were to thawed on ice. They were homogenized manually with ˜45 strokes of a dounce homogenizer in plastic 1.5 ml microfuge tubes then spun at 16.1 g in a microfuge for 30 min at room temperature (rt). The supernatants were transferred to new tubes and an equal volume absolute methanol was added. The samples were spun again at 16.1 g for 30 min at rt. Supernatant (200 μl) was transferred to a Corning costar 96 well black polystyrene assay plate (clear bottom). Additionally, a series of standards containing 0.001-10 μg ml^−1 dextran in 50% Tris-Cl/50% absolute methanol (vol/vol) was added to each plate. Absolute concentrations of dextrans were derived from these standard curves. Fluorimetric analysis was performed on a BioTek Synergy 4. FITC-dextran was detected at 488/519 (excitation/emission) and Texas Red-dextran was detected at 592/618.

The test system of test [5] is hCMEC/D3 cells. The experiment in a line: cAMP levels in human brain endothelial cells (cAMP Screen kit). It counts as cell-based. As to conditions: 15 minutes treatment, various concentrations (CCPA: at high levels). The method, then: Adenosine receptor activation regulates cAMP levels in cells. In order to determine the sensitivity of human brain endothelial cells to adenosine receptor induced cAMP regulation, human brain endothelial cells were cultured with adenosine receptor agonists at various concentrations, followed by cAMP level analysis, as shown in FIG. 13.
HCMECD3 cells were grown to confluencey on 24 well plates. As adenosine receptor (“AR”) stimulation is known to influence cAMP levels, cells were treated with or without various concentrations of NECA (general AR agonist), CCPA (A1 AR agonist), CGS 21860 (A2A AR agonist), DMSO vehicle, or Forksolin (induces cAMP). After 15 minutes, lysis buffer was added and the cells were frozen at −80 C to stop the reaction. Duplicate samples were used for each condition. cAMP levels were assayed using a cAMP Screen kit (Applied Biosystems, Foster City, Calif.).

For test [6], the system named is blood brain barrier. Description: FITC-Dextran extravasation through the brain endothelium (brain sections). It counts as in vivo, mice. Conditions: 10,000 MW FITC Dextran IP, 30 minutes. The method, then: In order to examine the effects of caffeine, a general adenosine receptor antagonist, on blood brain barrier permeability, mice were fed caffeine for several days and then injected with FITC Dextran, commonly used to assess endothelial permeability.
More particularly, mice were fed 0.6 g/l caffeine (Sigma, St. Louis, Mo.) in water or regular water ad lib for five days. Mice were injected IP with FITC Dextran (10,000 MW, Molecular Probes, Eugene, Oreg.) and after 30 minutes mice were perfused with ice cold PBS via the left ventricle. Brains were removed and snap frozen in OCT (Tissue Tek, Torrance, Calif.) and stored at −80° C. until sectioning. Tissue sections (5 μm) were stained with hematoxylin for light microscopy and with DAPI for a fluorescent counterstain.

The test system of test [7] is Experimental Autoimmune Encephalomyelitis (EAE). The experiment in a line: MOG-induced EAE induction and daily scoring. In kind it is in vivo, mice. An excerpt: Cd73^−/− mice have been previously described (Thompson et al., “Crucial Role for Ecto-5′-Nucleotidase (CD73) in Vascular Leakage During Hypoxia,” J. Exp. Med. 200:1395-1405 (2004), which is hereby incorporated by reference in its entirety) and have been backcrossed to C57BL/6 for 14 generations. Cd73 mice have no overt susceptibility to infection and appear normal based on the size and cellular composition of their lymphoid organs and their T and B cell responses in in vivo and in vitro assays (Thompson et al., “Crucial Role for Ecto-5′-Nucleotidase (CD73) in Vascular Leakage During Hypoxia,” J. Exp. Med. 200:1395-1405 (2004), which is hereby incorporated by reference in its entirety). C57BL/6 and tcrα^−/− mice on the C57BL/6 background were purchased from The Jackson Laboratories. Mice were bred and housed under specific pathogen-free conditions at Cornell University or the University of Turku. For adenosine receptor blockade experiments, mice were given drinking water supplemented with 0.6 g/L of caffeine (Sigma) or 2 mg/kg SCH58261 (1 mg/kg s.c. and 1 mg/kg i.p.) in DMSO (45% vol. in PBS) or 45% DMSO alone starting 1 day before EAE induction and continuing throughout the experiment. All procedures performed on mice were approved by the relevant animal review committee.
EAE was induced by subjecting mice to the myelin oligodendrocyte glycoprotein (“MOG”) EAE-inducing regimen as described in Swanborg, “Experimental Autoimmune Encephalomyelitis in Rodents as a Model for Human Demyelinating Disease,” Clin. Immunol. Immunopathol. 77:4-13 (1995) and Bynoe et al., “Epicutaneous Immunization with Autoantigenic Peptides Induces T Suppressor Cells that Prevent Experimental Allergic Encephalomyelitis,” Immunity 19:317-328 (2003), which are hereby incorporated by reference in their entirety. Briefly, a 1:1 emulsion of MOG35-55 peptide (3 mg/ml in PBS) (Invitrogen) and complete Freund's adjuvant (CFA, Sigma) was injected subcutaneously (50 μl) into each flank. Pertussis toxin (PTX, 20 ng) (Biological Laboratories Inc.) was given intravenously (200 μl in PBS) at the time of immunization and again 2 days later. Mice were scored daily for EAE based on disease symptom severity; 0=no disease, 0.5-1=weak/limp tail, 2=limp tail and partial hind limb paralysis, 3=total hind limb paralysis, 4=both hind limb and fore limb paralysis, 5=death. Mice with a score of 4 were euthanized.

Regarding `OC[C@H]1O[C@@H](n2cnc3c(NC4CCCC4)nc(Cl)nc32)[C@H](O)[C@@H]1O` [CCPA, 2-chloro-N^6-cyclopentyladenosine], in test [1], the “actin stress fibers compared to vehicle alone” value is “induction of actin stress fibers was observed”. For the same molecule, the “lymphocyte (Jurkat) migration across the CP” value in test [2] was “induced lymphocyte migration at high levels”. Moreover, the “lymphocyte (Jurkat) migration across the in vitro BBB” value in test [3] is recorded as “induced lymphocyte migration at high levels”. Also, in test [4], the “dextran entry into the CNS compared to NECA administration” value is “significantly lower than that observed after NECA administration” and the “dextran entry into the CNS compared to vehicle treatment” value is on record as “increased dextran entry into the CNS”. Besides, the cAMP levels entry in test [5] is recorded as “increased cAMP levels”.
With `CCNC(=O)[C@H]1O[C@@H](n2cnc3c(N)nc(NCCc4ccc(CCC(=O)O)cc4)nc32)[C@H](O)[C@@H]1O` [CGS 21680, 4-[2-[[6-Amino-9-(N-ethyl-b-D-ribofuranuronamidosyl)-9H-purin-2-yl]amino]ethyl]benzenepropanoic acid], the “lymphocyte (Jurkat) migration across the CP” value in test [2] was “promoted lymphocyte migration across the CP”. For the same molecule, the “lymphocyte (Jurkat) migration across the in vitro BBB” value in test [3] is “promoted lymphocyte migration across the in vitro BBB when used at a lower concentration”. Also, in test [4], the “dextran entry into the CNS compared to NECA administration” value was “significantly lower than that observed after NECA administration” and the “dextran entry into the CNS compared to vehicle treatment” value is “increased dextran entry into the CNS”. The cAMP levels result in test [5] was “slightly increased cAMP levels”.
`Cn1c(=O)c2c(ncn2C)n(C)c1=O` [caffeine]: the “FITC-Dextran extravasation across the blood brain barrier” value in test [6] (CD73−/− mice fed 0.6 g/l caffeine for five days, compared with wild type mice) was “less FITC-Dextran extravasation”; in test [6] (wild type mice (caffeine feeding experiment), compared with CD73−/− mice), “more FITC-dextran extravasation”. Further, the EAE development result in test [7] (cd73−/− mice, caffeine 0.6 g/L in drinking water) is “did not develop EAE”; in test [7] (wild type mice, caffeine 0.6 g/L in drinking water from 1 day prior to and throughout EAE experiment) it was “dramatically protected against EAE development”.

B1: PEG-ADA: PEGylated adenosine deaminase (protein, UniProt P56658 2-363, looked up)
Adenosine deaminase: AQTPAFNKPKVELHVHLDGAIKPETILYYGRKRGIALPADTPEELQNIIGMDKPLSLPEFLAKFDYYMPAIAGCREAVKRIAYEFVEMKAKDGVVYVEVRYSPHLLANSKVEPIPWNQAEGDLTPDEVVSLVNQGLQEGERDFGVKVRSILCCMRHQPSWSSEVVELCKKYREQTVVAIDLAGDETIEGSSLFPGHVKAYAEAVKSGVHRTVHAGEVGSANVVKEAVDTLKTERLGHGYHTLEDATLYNRLRQENMHFEVCPWSSYLTGAWKPDTEHPVVRFKNDQVNYSLNTDDPLIFKSTLDTDYQMTKNEMGFTEEEFKRLNINAAKSSFLPEDEKKELLDLLYKAYGMPSPASAEQCL
modifications: PEGylated
notes: PEGylated adenosine deaminase
Take B1: in test [7] (wild-type mice, 15 units/kg body weight i.p. every 4 days, vs PBS vehicle), the “development of EAE (mean EAE score)” value is “inhibits the development of EAE”.
